The numbers were not newly measured in patent US11589577B2, “Nanotechnology system for agricultural applications” (priority 2012, dated 2023), which cites them from elsewhere.

The conditions of this series: binds soil ions; stated as known issue.

For abamectin, the “soil mobility (general statement)” value is recorded as “poor soil mobility”.
